Assay results: patent publication US7034041B2 (priority 2000, dated 2006)
Structures can show the parent of a compound that is named as a salt.

Biological target: (+)-MK801 binding site of the ionotropic NMDA receptor
Parameters: species or system rat

Compound | Ki
Cc1ccccc1C1=CCN(C2(c3ccccc3)CCCCC2)CC1 [Example 7, 4-(2-methylphenyl)-1-(1-phenylcyclohexyl)-1,2,3,6-tetrahydropyridine hydrochloride] | 5.3 µM
Clc1ccccc1C1=CCN(C2(c3ccccc3)CCCCC2)CC1 [Example 11, 4-(2-chlorophenyl)-1-(1-phenylcyclohexyl)-1,2,3,6-tetrahydropyridine hydrochloride] | 2.8 µM
